{
  "source": "patent US9808477B2",
  "about": "(Macau University of Science and Technology, priority 2015, dated 2017)",
  "key": {"[1]": {"tested_on": "A2780/T cells (PTX-resistant, ABCB1-overexpressing ovarian cancer cells)", "assay": "cells", "type": "cell-based, human", "details": "Homo sapiens, A2780, 48 h, A2780/T, 48 h, SRB, drug alone (no nobiletin); read-out: IC50 ± SD", "experimental": "(§1) Sulphorhodamine B (SRB) assays were used for cell density determination, based on sensitive measure of total cellular protein, which perform similarly compared with other proliferation assays such as MTT assay. Briefly, cells were seeded into flat bottomed 96-well plates at an initial density of 7.5×10^3 per well before treatment. […] After removing the medium, cells were fixed in 10% trichloroacetic acid for 1 h at 4° C. and then washed with water five times. 0.4% SRB dissolved in 1% v/v acetic acid was added and incubated […] for staining. The cells were quickly washed with 1% acetic acid and left to dry overnight. The protein bound SRB was solubilized by adding 200 μl 10 mM Tris buffer per well and was measured at wavelengths 490 nm using a plate reader (Spectra MAX 250; Molecular Devices, Sunnyvale, Calif.). The optical density of SRB in each well is directly proportional to the cell number."}, "in vitro": {"assay": "in vitro", "type": "cell-based", "details": "human", "experimental": "as §1"}, "A2780/T cells [2]": {"tested_on": "A2780/T cells", "assay": "Colony formation assay", "type": "cell-based, human", "details": "12 days", "source_text": "The A2780/T cells were trypsinized and plated in fresh culture medium at a density of 600 cells/9.6 cm^2 plate. Subsequently, the cells were fixed with 70% ethanol and stained with crystal violet (0.5% in ethanol). The plates were rinsed with phosphate buffered saline (PBS), and the colony numbers were counted using the software of Quantity one-Colony counting."}, "A2780/T cells [3]": {"tested_on": "A2780/T cells", "assay": "Apoptosis analysis by Annexin-V/PI double staining", "type": "cell-based, human", "experimental": "After treatment, 1×10^6 cells were collected, washed and suspended in 100 μl of binding buffer (10 mM N-2-hydroxyethylpiperazine-N,-2-ethanesulfonic acid/NaOH, 140 mM NaCl, 2.5 mM CaCl2, pH 7.4). Apoptotic cells were identified by double supravital staining with 5 μl recombinant FITC (fluorescein isothiocyanate)-conjugated Annexin-V and 5 μl PI (50 μg/ml). The cells were stained for […] at room temperature in the dark, and analyzed by fluorescence-activated cell sorting cater-plus flow cytometry. Data acquisition and analysis were performed in BD FACS Aria with FlowJo software."}, "A2780/T cells [4]": {"tested_on": "A2780/T cells", "assay": "Combination index, Chou-Talalay method (CalcuSyn)", "type": "cell-based, human"}, "A2780/T cells [5]": {"tested_on": "A2780/T cells", "assay": "Intracellular accumulation of doxorubicin and Flutax-2", "type": "cell-based, human", "details": "8 h, 4.5 μM nobiletin or 20 μM QND"}, "A2780 cells": {"tested_on": "A2780 cells", "assay": "Intracellular accumulation of doxorubicin and Flutax-2", "type": "cell-based, human", "details": "parental A2780, nobiletin 4.5 μM", "experimental": "A2780 or A2780/T cells (5×10^6) were cultured on the cover glass (ISO LAB 20×20 mm). […] After treatment, cells were fixed in 4 wt % formaldehyde (Sigma-Aldrich). Nuclear DNA was stained with 1 μg/mL blue-fluorescent DAPI (1 mg/mL in H2O stock solution; Invitrogen D1306). One drop of fluorescent preservation solution (fluorsave reagent, CALBIOCHEM) was added before observation. Imaging was carried out for comparing the intracellular accumulation of DOX and flutax-2 with a Fluorescence Microscopy (Leica DM2500, Leica, Germany).\nCells were detached, re-suspended in 500 μl of PBS after washed twice with cold PBS, and analyzed by flow cytometry (BD FACS Aria, BD Biosciences, San Jose, Calif.). Excitation and emission wavelengths (nm) used for DOX and flutax-2 were as follows: 480 to 585; and 496 to 524."}, "[6]": {"molecular_target": "T1, recombinant human ABCB1 membranes (P-gp ATPase) (Homo sapiens, UniProt P08183)", "T1 construct": "purchased Promega", "T1 sequence (P08183 whole entry)": "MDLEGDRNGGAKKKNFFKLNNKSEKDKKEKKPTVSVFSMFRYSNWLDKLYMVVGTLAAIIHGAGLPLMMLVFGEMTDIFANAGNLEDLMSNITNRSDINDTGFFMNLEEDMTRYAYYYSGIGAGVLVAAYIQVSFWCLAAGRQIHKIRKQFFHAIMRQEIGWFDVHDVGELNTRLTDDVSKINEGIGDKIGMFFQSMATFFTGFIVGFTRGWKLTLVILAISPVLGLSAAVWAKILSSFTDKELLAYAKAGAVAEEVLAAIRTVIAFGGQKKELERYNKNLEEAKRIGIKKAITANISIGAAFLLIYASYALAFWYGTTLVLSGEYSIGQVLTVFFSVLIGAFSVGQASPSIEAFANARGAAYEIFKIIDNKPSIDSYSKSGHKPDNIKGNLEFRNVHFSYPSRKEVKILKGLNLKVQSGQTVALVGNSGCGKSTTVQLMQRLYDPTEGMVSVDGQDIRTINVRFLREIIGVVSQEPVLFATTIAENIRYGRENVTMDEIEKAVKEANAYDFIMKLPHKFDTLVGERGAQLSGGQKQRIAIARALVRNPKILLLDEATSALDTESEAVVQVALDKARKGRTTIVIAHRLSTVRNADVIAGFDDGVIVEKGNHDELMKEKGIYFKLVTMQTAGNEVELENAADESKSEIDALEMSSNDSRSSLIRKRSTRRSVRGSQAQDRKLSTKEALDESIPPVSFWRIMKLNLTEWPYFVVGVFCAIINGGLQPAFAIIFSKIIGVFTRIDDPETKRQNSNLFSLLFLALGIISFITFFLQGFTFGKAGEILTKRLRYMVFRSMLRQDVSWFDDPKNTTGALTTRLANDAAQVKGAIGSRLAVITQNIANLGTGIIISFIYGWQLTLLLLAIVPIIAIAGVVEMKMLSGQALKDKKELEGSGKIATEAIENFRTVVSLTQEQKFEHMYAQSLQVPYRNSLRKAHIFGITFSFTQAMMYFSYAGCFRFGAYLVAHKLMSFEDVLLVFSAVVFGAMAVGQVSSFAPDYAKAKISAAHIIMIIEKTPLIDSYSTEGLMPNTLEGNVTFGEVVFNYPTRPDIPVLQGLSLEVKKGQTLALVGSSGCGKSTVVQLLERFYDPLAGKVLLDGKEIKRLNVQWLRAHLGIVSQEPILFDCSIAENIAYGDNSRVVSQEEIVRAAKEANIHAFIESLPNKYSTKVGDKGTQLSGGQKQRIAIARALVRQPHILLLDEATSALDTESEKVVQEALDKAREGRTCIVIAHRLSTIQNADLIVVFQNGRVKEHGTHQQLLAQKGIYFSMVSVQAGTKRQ", "assay": "ABCB1 ATPase activity assay (PgpGlo)", "type": "biochemical", "experimental": "Sodium orthovanadate (Na3VO4) was used as an ABCB1 ATPase inhibitor. […] Luminescence was initiated by ATP detection buffer. The plate (white opaque 96-well, corning, USA) was further incubated at room temperature for […] to develop luminescent signal, and was read with luminometer (infinite M200 PRO, TECAN, Switzerland)."}, "[7]": {"tested_on": "MDR1 mRNA in A2780/T cells", "assay": "RT-PCR analysis of MDR1 mRNA", "type": "cell-based, human", "details": "nobiletin at concentrations used in reversal assays, 48 h", "experimental": "RT-PCR was performed to evaluate MDR1 mRNA expression. mRNA from cell lysates were purified by binding to poly(dT) magnetic beads (Life technologies) and reverse transcribed by using SuperScript II (Life technologies). Standard quantitative RT-PCR was performed in duplicates at least two to three times by using SYBR Green (Molecular Probes) protocols on the ViiA™ 7 Real-Time PCR System (Life technologies). The primer sequences: 5′-[…]-3′ (SEQ ID NO:1) and 3′-[…]-5′ (SEQ ID NO:2) for MDR1, and 5′-[…]-3′ (SEQ ID NO:3) and 3′-[…]-[…]-5′ (SEQ ID NO:4) for control gene eukaryotic translation initiation factor (TIF). RT-PCR data were normalized by measuring average cycle threshold (Ct) ratios between candidate genes and control gene TIF."}, "Caco-2 cells": {"tested_on": "Caco-2 cells", "details": "nobiletin 20 μM; cited from earlier work"}, "[8]": {"tested_on": "ABCB1 transfected cell line LLC-GA5-COL300", "details": "nobiletin 20 μM; cited from earlier work"}, "[9]": {"details": "rats, single administration 50 mg/kg by gavage; cited from earlier work"}, "[10]": {"details": "9 μM nobiletin alone or 0.94 μM PTX alone"}},
  "data": [
    {"smiles": "COc1ccc(-c2cc(=O)c3c(OC)c(OC)c(OC)c(OC)c3o2)cc1OC", "note": "[nobiletin]", "values": [
      {"measurement": "IC50", "setting": "[1]", "result": 31.6, "unit": "µM"},
      {"measurement": "viability at 9 µM", "setting": "in vitro", "result": "> 90", "unit": "%"},
      {"measurement": "inhibition of colony formation, single agent", "setting": "A2780/T cells [2]; [10]", "result": "no inhibition"},
      {"measurement": "inhibition of colony formation, combination", "setting": "A2780/T cells [2]; different concentrations of nobiletin with 0.94 μM PTX", "result": "Complete inhibition"},
      {"measurement": "apoptosis induction, single treatment", "setting": "A2780/T cells [3]; [10]", "result": "did not show apoptosis induction"},
      {"measurement": "apoptosis induced by 0.94 μM PTX (annexin V-FITC positive)", "setting": "A2780/T cells [3]; 0.5, 1.5, 4.5 and 9 μM nobiletin + 0.94 μM PTX, 48 h", "result": "significantly increase apoptosis"},
      {"measurement": "EC50", "setting": "A2780/T cells [4]; Homo sapiens, A2780, read-out: Dose N at Fa = 0.5 (ED50), CalcuSyn simulation, A2780/T, nobiletin dose, alone or in the combination", "result": 36, "unit": "µM"},
      {"measurement": "decrease of the ED50 dose of PTX", "setting": "A2780/T cells [4]; combination with 0.286 μM nobiletin, A2780/T", "result": 200, "unit": "fold"},
      {"measurement": "intracellular accumulation of DOX", "setting": "A2780/T cells [5]; 5 μM DOX", "result": "higher than that in untreated A2780/T"},
      {"measurement": "intracellular accumulation of Flutax-2", "setting": "A2780/T cells [5]; Flutax-2 1 μM", "result": "higher than that in untreated A2780/T"},
      {"measurement": "DOX and Flutax-2 levels", "setting": "A2780 cells", "result": "no effect"},
      {"measurement": "EC50", "setting": "[6]", "result": 5.88, "unit": "µM"},
      {"measurement": "IC50", "setting": "[6]", "result": 7.17, "unit": "µM"},
      {"measurement": "maximal stimulation of ATPase activity relative to basal activity", "setting": "[6]; human, 40 min", "result": 3, "unit": "fold"},
      {"measurement": "expression of MDR1 mRNA", "setting": "[7]", "result": "did not significantly alter"},
      {"measurement": "increase of uptake of [3H] vinblastine", "setting": "Caco-2 cells", "result": 3, "unit": "fold"},
      {"measurement": "increase of uptake of [3H] vinblastine", "setting": "[8]", "result": 1.8, "unit": "fold"},
      {"measurement": "peak plasma level", "setting": "[9]", "result": "~22.5", "unit": "µM"}
    ]}
  ]
}
